Assays:
PA-1 cells = assay: Cell glycolysis, Seahorse XF Glycolysis Stress Test (ECAR); type: cell-based, human; settings: 100 μM
Excerpt: To investigate whether the cytotoxicity of 5a and 6a is related to their effects on metabolism, we quantified their inhibition of glycolysis in human ovarian teratocarcinoma PA-1 cells using Seahorse technology, which allows the rapid assessment of glycolytic metabolism in cells using a proton efflux rate assay (ECAR). It is well known that glucose in cells is converted to pyruvate and then either to lactate in the cytoplasm or CO2 and water in the mitochondria. As glucose is converted to lactate, protons are released into the extracellular environment to maintain intracellular pH homeostasis. This extracellular acidification is measured in real time and provides insight into the rate of glycolytic proton efflux. PA-1 cells are used for the study of glycolysis since a pronounced deregulation of cellular energy is observed in the case of ovarian cancer, mediating the growth, invasion and migration of tumor cells.
Measuring ECAR under these conditions provides the parameters presented in Figure 9c,d: the level of glycolysis and glycolytic capacity.
Determination of cell glycolysis. Cell glycolysis was measured with Seahorse XF Glycolysis Stress Test Kit and Seahorse Bioscience XF96 Extracellular Flux Analyzer (Agilent Technology, Boston, MA, USA). […] ECAR levels were examined and analyzed using Seahorse Bioscience XF96 Extracellular Flux Analyzer. […]

HuTu 80 cells = assay: Mitochondrial membrane potential, JC-10 flow cytometry; type: cell-based, human; settings: 24 h treatment, IC50/2 and IC50
Protocol: In this study, we used the fluorescent dye JC-10 from the Mitochondria Membrane Potential Kit (Sigma, St. Louis, MO, USA). Changes in mitochondrial membrane potential under the influence of lead compounds 5a and 6a were determined at IC50/2 and IC50 concentrations on the HuTu 80 cell line. When JC-10 accumulates in the mitochondrial matrix, it forms fluorescent J-aggregates. Their red fluorescence is characteristic for normal cells with high mitochondrial membrane potential. The reduction in mitochondrial membrane potential in apoptotic cells allows JC-10 to escape out of the mitochondria in a monomeric form which has green fluorescence. The mitochondrial membrane potential of HuTu 80 cells is decreased after 24 h treatment with the lead compounds 5a and 6a. The change becomes more pronounced as the concentrations of the tested compounds approach IC50 (Figure 7).
Cell Culture. HuTu 80 cells at 1 × 10^6 cells/well in a final volume of 2 mL were seeded into six-well plates. After 48 h of incubation, various concentrations of lead compounds were added to wells.
Mitochondrial Membrane Potential. […] After the cells were rinsed three times and suspended in PBS, the JC-10 fluorescence was observed using flow cytometry (Guava easy Cyte, MERCK, Rahway, NJ, USA).

SMILES: O=C(C[P+](c1ccccc1)(c1ccccc1)c1ccccc1)NCCC1c2c(ccc3ccccc23)Oc2ccc3ccccc3c21 [Compound 6a]
- glycolysis (ECAR) at maximum concentration (in words) (PA-1 cells): completely blocking glycolysis
- mitochondrial membrane potential (in words) (HuTu 80 cells): decreased

From paper PMC11203978, “Discovery of Di(het)arylmethane and Dibenzoxanthene Derivatives as Potential Anticancer Agents” (International Journal of Molecular Sciences, 2024)
